Columns and labels:
[1] = target: T1, Alpha-2B adrenergic receptor (Homo sapiens, UniProt P18089)
T1 sequence (P18089 whole entry): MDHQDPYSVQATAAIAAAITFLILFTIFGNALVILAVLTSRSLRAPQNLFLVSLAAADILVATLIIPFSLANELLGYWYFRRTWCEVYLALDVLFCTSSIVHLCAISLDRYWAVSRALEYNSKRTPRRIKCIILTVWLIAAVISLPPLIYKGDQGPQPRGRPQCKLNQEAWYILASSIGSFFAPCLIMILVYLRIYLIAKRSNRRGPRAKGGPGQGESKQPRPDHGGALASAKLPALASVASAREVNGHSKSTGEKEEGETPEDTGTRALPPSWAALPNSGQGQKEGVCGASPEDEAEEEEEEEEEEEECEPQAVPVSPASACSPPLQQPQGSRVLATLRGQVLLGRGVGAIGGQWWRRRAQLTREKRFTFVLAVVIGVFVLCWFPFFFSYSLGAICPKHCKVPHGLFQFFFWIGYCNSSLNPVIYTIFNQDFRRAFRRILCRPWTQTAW

[2] = target: Beta-2 adrenergic receptor (Homo sapiens, UniProt P07550); assay type: functional, cell-based
Androgen receptor = target: T2, Androgen receptor (Rattus norvegicus, UniProt P15207); assay type: functional
T2 sequence (P15207 whole entry): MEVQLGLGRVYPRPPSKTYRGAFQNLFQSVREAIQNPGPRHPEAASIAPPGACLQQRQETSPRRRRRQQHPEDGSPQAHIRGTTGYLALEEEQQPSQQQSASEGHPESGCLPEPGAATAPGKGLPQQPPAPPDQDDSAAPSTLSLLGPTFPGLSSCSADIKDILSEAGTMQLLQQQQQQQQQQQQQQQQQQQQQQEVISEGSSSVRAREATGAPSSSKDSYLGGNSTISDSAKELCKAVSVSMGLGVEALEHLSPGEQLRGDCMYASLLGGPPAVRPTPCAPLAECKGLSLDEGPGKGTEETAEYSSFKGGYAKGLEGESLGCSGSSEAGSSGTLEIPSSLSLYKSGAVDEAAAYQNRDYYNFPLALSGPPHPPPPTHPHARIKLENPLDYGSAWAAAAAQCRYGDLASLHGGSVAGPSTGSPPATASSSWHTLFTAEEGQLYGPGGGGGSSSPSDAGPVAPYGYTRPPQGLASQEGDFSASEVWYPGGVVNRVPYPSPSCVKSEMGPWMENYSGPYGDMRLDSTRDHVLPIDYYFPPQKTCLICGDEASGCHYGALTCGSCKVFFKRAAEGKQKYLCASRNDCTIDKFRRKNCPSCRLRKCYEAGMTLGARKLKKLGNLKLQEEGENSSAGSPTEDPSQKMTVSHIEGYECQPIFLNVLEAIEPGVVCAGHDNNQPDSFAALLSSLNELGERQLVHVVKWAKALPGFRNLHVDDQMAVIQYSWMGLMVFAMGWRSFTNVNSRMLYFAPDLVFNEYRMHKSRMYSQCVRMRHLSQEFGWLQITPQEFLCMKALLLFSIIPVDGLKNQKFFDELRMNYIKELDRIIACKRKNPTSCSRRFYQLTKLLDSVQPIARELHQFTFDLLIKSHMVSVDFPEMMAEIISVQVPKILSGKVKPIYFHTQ

Vasopressin V1a receptor = Vasopressin V1a receptor (Homo sapiens, UniProt P37288)
[3] = target: T3, Gastrin/cholecystokinin type B receptor (Homo sapiens, UniProt P32239)
T3 sequence (P32239 whole entry): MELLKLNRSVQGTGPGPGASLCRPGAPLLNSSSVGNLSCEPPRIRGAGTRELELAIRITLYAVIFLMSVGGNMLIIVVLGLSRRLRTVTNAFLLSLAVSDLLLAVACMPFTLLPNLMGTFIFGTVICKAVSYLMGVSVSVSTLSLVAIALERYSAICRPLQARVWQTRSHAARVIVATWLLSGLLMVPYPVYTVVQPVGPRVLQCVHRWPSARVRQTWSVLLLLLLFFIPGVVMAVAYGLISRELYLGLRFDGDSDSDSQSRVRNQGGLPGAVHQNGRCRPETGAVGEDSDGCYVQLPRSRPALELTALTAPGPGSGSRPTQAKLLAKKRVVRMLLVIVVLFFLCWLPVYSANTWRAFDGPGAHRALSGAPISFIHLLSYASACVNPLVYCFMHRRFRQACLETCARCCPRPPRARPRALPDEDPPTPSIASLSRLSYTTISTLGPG

[4] = target: T4, Muscarinic acetylcholine receptor M1 (Homo sapiens, UniProt P11229); assay type: functional
T4 sequence (P11229 whole entry): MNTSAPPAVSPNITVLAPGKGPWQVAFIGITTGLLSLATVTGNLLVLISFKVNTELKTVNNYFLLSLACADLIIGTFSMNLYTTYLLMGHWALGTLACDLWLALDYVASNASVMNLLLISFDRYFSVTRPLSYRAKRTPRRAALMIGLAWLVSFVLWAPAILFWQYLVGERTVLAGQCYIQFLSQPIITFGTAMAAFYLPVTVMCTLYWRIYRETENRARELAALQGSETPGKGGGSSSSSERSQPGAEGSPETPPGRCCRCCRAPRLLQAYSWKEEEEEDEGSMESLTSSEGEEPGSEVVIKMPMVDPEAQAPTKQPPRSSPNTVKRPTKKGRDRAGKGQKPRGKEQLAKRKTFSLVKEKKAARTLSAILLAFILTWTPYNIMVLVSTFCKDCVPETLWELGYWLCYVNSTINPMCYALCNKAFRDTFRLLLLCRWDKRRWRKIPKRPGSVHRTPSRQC

[5] = target: Muscarinic acetylcholine receptor M3 (Homo sapiens, UniProt P20309)
[6] = target: Gamma-aminobutyric acid receptor subunit alpha-1/alpha-2/beta-2/gamma-2 (Homo sapiens, UniProt P14867+P18507+P47869+P47870); assay type: functional, cell-based
[7] = target: 5-hydroxytryptamine receptor 2A (Homo sapiens, UniProt P28223); assay type: functional, cell-based
[8] = target: Sodium-dependent serotonin transporter (Homo sapiens, UniProt P31645)
Histamine H3 receptor = Histamine H3 receptor (Homo sapiens, UniProt Q9Y5N1)
Mu-type opioid receptor = Mu-type opioid receptor (Homo sapiens, UniProt P35372)

Measured: AC50
Further: assay procedure not described here.

Sequence of Beta-2 adrenergic receptor (P07550 whole entry): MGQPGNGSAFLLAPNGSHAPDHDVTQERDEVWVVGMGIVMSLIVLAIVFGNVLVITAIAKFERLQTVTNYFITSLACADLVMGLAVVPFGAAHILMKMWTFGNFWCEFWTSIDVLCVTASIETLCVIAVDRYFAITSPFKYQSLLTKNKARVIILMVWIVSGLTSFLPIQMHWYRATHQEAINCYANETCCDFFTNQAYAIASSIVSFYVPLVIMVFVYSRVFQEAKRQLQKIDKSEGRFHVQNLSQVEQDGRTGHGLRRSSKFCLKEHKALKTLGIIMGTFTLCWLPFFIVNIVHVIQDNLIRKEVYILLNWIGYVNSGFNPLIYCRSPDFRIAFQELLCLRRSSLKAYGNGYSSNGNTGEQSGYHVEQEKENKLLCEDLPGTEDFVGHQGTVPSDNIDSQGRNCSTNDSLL
Sequence of Sodium-dependent serotonin transporter (P31645 whole entry): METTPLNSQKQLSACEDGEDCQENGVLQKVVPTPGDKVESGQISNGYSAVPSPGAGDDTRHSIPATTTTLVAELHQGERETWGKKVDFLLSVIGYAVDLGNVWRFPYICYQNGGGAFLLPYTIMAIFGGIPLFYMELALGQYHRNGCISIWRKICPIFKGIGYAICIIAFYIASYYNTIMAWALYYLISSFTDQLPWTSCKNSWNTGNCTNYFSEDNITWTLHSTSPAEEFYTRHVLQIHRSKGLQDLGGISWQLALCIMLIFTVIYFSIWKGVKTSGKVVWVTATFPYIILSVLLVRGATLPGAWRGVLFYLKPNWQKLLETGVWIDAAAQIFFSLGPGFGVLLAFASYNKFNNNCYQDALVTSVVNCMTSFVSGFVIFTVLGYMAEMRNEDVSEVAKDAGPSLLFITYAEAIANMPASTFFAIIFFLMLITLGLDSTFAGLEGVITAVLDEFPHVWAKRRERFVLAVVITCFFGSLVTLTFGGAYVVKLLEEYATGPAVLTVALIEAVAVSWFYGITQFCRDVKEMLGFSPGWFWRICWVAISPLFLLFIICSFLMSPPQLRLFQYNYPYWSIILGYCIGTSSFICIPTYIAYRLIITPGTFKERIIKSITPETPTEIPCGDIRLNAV
Sequence of Gamma-aminobutyric acid receptor subunit alpha-1/alpha-2/beta-2/gamma-2 (P14867 whole entry): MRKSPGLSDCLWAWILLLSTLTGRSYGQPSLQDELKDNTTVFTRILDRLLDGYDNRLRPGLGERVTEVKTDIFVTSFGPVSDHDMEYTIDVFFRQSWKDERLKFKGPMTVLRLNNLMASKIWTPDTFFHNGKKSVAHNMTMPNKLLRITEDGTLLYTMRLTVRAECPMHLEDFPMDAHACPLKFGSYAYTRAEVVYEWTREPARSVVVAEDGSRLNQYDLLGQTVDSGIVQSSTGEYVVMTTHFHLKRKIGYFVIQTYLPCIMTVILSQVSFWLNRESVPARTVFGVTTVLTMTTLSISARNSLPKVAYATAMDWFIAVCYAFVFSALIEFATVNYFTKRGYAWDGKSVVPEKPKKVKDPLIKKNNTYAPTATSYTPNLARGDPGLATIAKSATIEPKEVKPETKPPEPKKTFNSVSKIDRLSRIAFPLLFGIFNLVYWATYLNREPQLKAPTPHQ
Sequence of Gamma-aminobutyric acid receptor subunit alpha-1/alpha-2/beta-2/gamma-2 (P47870 whole entry): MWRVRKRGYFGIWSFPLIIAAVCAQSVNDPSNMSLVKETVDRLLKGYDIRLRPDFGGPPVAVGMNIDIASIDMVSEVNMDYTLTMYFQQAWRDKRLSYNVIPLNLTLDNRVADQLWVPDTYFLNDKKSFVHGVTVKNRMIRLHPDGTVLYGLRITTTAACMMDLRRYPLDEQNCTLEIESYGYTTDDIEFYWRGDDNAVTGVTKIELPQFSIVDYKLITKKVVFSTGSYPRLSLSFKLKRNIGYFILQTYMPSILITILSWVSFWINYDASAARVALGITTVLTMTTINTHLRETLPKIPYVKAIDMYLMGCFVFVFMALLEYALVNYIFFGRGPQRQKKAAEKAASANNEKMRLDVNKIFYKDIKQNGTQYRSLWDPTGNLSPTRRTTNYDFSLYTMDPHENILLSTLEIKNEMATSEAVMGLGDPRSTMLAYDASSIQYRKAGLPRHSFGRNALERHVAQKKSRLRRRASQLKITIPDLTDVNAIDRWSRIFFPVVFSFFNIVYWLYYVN
Sequence of Gamma-aminobutyric acid receptor subunit alpha-1/alpha-2/beta-2/gamma-2 (P18507 whole entry): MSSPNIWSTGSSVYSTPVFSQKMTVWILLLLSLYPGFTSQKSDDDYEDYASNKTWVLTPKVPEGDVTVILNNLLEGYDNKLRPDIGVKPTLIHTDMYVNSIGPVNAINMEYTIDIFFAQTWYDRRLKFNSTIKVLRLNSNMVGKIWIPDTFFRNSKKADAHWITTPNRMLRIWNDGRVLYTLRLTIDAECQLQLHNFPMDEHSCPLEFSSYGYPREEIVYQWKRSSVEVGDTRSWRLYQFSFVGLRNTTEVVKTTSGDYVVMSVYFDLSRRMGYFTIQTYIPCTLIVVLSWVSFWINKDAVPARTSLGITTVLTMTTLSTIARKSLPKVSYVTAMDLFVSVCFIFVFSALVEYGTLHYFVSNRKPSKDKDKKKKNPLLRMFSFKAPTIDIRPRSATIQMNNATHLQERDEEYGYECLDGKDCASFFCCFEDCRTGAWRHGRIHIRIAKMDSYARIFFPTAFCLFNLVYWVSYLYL
Sequence of Gamma-aminobutyric acid receptor subunit alpha-1/alpha-2/beta-2/gamma-2 (P47869 whole entry): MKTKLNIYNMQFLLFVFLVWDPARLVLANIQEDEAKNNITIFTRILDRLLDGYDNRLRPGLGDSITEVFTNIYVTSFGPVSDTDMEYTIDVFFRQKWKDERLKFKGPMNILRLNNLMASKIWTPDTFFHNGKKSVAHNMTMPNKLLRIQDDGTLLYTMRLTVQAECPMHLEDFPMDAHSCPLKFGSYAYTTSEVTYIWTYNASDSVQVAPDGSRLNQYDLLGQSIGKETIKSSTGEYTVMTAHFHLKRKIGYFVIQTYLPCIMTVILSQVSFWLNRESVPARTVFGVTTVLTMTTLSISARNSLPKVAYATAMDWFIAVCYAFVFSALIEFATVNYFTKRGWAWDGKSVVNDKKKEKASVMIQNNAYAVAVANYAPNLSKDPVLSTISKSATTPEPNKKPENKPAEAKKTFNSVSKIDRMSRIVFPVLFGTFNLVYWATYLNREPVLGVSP
Sequence of Histamine H3 receptor (Q9Y5N1 whole entry): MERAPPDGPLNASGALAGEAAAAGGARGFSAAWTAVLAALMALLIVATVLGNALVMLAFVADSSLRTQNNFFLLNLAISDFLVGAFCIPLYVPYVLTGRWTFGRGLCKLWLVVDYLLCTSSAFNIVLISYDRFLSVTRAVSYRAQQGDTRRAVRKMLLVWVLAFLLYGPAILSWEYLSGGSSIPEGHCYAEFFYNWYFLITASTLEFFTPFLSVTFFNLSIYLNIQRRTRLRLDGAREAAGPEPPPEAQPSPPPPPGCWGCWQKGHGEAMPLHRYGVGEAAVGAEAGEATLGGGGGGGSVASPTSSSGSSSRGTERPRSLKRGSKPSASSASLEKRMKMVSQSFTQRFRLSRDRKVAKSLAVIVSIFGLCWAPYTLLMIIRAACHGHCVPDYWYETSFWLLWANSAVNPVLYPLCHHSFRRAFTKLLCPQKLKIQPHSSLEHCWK
Sequence of Vasopressin V1a receptor (P37288 whole entry): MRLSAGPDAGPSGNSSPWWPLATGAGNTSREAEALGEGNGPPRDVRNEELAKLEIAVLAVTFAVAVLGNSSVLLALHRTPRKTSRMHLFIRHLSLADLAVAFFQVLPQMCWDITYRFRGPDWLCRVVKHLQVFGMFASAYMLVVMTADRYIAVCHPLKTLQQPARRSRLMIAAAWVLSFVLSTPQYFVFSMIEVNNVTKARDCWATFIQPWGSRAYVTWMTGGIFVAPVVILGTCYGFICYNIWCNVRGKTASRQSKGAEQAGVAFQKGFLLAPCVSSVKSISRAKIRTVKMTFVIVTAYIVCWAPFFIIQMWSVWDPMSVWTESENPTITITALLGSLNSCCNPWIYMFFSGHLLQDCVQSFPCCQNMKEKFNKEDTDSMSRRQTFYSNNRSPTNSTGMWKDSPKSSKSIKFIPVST
Sequence of 5-hydroxytryptamine receptor 2A (P28223 whole entry): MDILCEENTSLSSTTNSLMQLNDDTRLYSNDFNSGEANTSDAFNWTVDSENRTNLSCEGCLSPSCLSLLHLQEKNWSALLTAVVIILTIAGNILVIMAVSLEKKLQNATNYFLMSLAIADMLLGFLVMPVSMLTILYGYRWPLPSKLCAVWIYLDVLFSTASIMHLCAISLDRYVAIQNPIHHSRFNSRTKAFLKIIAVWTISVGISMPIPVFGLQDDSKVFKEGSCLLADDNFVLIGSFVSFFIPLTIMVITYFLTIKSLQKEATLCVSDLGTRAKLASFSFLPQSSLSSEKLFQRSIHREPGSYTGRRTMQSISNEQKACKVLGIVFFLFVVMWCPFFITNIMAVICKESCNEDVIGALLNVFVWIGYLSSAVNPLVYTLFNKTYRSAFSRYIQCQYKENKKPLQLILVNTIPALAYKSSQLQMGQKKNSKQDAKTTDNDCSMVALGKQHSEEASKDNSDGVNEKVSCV
Sequence of Muscarinic acetylcholine receptor M3 (P20309 whole entry): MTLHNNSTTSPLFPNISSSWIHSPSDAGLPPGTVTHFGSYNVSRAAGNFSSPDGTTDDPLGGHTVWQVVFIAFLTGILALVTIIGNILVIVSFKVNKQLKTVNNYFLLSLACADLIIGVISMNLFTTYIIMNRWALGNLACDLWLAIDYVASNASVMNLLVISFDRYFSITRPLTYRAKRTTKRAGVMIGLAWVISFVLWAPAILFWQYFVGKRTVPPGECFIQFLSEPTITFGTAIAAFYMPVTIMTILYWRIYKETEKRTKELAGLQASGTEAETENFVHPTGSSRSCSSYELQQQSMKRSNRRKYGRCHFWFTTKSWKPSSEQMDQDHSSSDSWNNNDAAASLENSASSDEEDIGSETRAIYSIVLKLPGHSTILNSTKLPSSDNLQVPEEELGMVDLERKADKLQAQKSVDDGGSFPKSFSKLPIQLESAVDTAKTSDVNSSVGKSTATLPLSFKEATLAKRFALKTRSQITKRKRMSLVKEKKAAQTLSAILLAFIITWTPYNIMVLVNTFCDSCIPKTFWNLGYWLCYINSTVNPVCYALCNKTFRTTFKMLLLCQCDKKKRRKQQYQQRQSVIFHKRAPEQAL

NC(=O)CN1CC(O)CC1=O (stereo not drawn) [OXIRACETAM]
not listed: Mu-type opioid receptor
> 30 µM: all other assays above

Cc1cc(C(C)(C)C)c(O)c(C)c1CC1=NCCN1 [OXYMETAZOLINE]
> 30 µM: [2] | Androgen receptor | [6] | Mu-type opioid receptor

C[C@@H]1O[C@@H](O[C@@H]2C=C3CC[C@@H]4[C@H](CC[C@]5(C)[C@@H](c6ccc(=O)oc6)CC[C@]45O)[C@@]3(C)CC2)[C@H](O)[C@H](O)[C@H]1O [PROSCILLARIDIN]
> 30 µM: [2] | Androgen receptor | [3] | Histamine H3 receptor

CC1(C)CCC(CN2CCN(c3ccc(C(=O)NS(=O)(=O)c4ccc(NCC5CCOCC5)c([N+](=O)[O-])c4)c(Oc4cnc5[nH]ccc5c4)c3)CC2)=C(c2ccc(Cl)cc2)C1 [VENETOCLAX]
> 30 µM: [2] | Androgen receptor | [4] | [8]
